# From ChEMBL document CHEMBL5046311, “Photoaffinity Probe Reveals the Potential Target of Harringtonolide for Cancer Cell Migration Inhibition” (ACS Med Chem Lett, 2022)
# pIC50: −log10 of the molar value. Calls of active or inactive are those of the source. The rule behind the calls is not given here.
# Columns and labels:
# A-375 [1] = test: Binding affinity to RACK1 in human A-375 cells at 10 uM preincubated for 4 hrs followed by irradiation with UV for 30 mins measured by Western blotting based pull-down assay; format: cell-based; settings: time 4.5 hrs
# A-375 [2] = test: Inhibition of cell migration in human A-375 cells at measured after 24 hrs by phase contrast microscopy based wound healing assay; format: functional; settings: dose 0.5-2 µM
# A-375 [3] = test: Inhibition of cell invasion in human A-375 cells at measured after 24 hrs by crystal violet staining based imaging analysis; format: functional; settings: dose 0.5-2 µM
# A-375 [4] = test: Antiproliferative activity against human A-375 cells assessed as reduction in cell viability at 1.5625 to 50 uM after 24 hrs by MTT assay; format: functional, cell-based; settings: dose 1.5625-50 µM
# [5] = Drug degradation in DMEM medium with 10% fetal bovine serum assessed as compound hydrolysis at 200 uM incubated upto 24 hrs by HLPC analysis; format: ADME, cell-free; settings: cattle, read-out: Drug degradation
# A-375 [6] = test: Binding affinity to RACK1 in human A-375 cells at 10 uM preincubated for 4 hrs in the presence of harringtonolide followed by irradiation with UV for 30 mins measured by Western blotting based pull-down assay; format: cell-based; settings: time 4.5 hrs
# A-375 [7] = test: Antiproliferative activity against human A-375 cells assessed as reduction in cell viability upto 50 uM after 24 hrs by MTT assay; format: functional, cell-based; settings: dose microM <=50, time 24.0 hrs
# [8] = Stability of the compound in DMEM medium with 10% fetal bovine serum assessed as parent compound remaining at 200 uM incubated upto 24 hrs by HLPC analysis; format: ADME, cell-free; settings: cattle, read-out: Stability
# A-375 [9] = test: Binding affinity to RACK1 in human A-375 cells assessed as prevention of temperature dependent protein degradation at 10 uM preincubated for 60 mins at room temperature followed by heat treatment at 45 to 63 degree C for 5 mins measured by immunoblotting based cellular thermal shift assay; format: cell-based
# A-375 [10] = test: Antiproliferative activity against human A-375 cells assessed as reduction in cell viability after 24 hrs by MTT assay; format: functional, cell-based; settings: A-375, 24 h
# A-375 [11] = test: Binding affinity to RACK1 in human A-375 cells assessed as prevention of pronase-mediated protein degradation at 5 to 20 uM preincubated for 60 mins followed by enzyme addition and measured after 25 mins by immunoblotting based DARTS assay; format: cell-based; settings: dose 5-20 µM, time 85.0 min
# A-375 [12] = test: Inhibition of epithelial-mesenchymal transition in human A-375 cells assessed as downregulation of N-cadherin expression at 0.5 to 4 uM measured after 24 hrs by Western blotting analysis; format: functional, cell-based; settings: dose 0.5-4 µM
# A-375 [13] = test: Inhibition of epithelial-mesenchymal transition in human A-375 cells assessed as downregulation of Snail expression at 0.5 to 4 uM measured after 24 hrs by Western blotting analysis; format: functional, cell-based; settings: dose 0.5-4 µM
# A-375 [14] = test: Inhibition of epithelial-mesenchymal transition in human A-375 cells assessed as upregulation of E-cadherin expression at 0.5 to 4 uM measured after 24 hrs by Western blotting analysis; format: functional, cell-based; settings: dose 0.5-4 µM
# [15] = biological target: Focal adhesion kinase 1 (Homo sapiens) (UniProt Q05397); test: Inhibition of FAK phosphorylation in human A-375 cells measured after 24 hrs by Western blotting analysis; format: cell-based; settings: dose 0.5-4 µM
# [16] = biological target: Focal adhesion kinase 1 (Homo sapiens) (UniProt Q05397); test: Inhibition of FAK in human A-375 cells assessed as reduction in Src activation at 0.5 to 4 uM measured after 24 hrs by Western blotting analysis; format: cell-based; settings: dose 0.5-4 µM
# [17] = biological target: Focal adhesion kinase 1 (Homo sapiens) (UniProt Q05397); test: Inhibition of FAK in human A-375 cells assessed as reduction in STAT3 activation at 0.5 to 4 uM measured after 24 hrs by Western blotting analysis; format: cell-based; settings: dose 0.5-4 µM
# [18] = biological target: Signal transducer and activator of transcription 3 (Homo sapiens) (UniProt P40763); test: Inhibition of STAT3 in human A-375 cells assessed as decrease in Bcl2 protein level at 0.5 to 4 uM measured after 24 hrs by western blot analysis; format: cell-based; settings: dose 0.5-4 µM
# [19] = biological target: Signal transducer and activator of transcription 3 (Homo sapiens) (UniProt P40763); test: Inhibition of STAT3 in human A-375 cells assessed as decrease in c-Myc protein level at 0.5 to 4 uM measured after 24 hrs by western blot analysis; format: cell-based; settings: dose 0.5-4 µM
# A-375 [20] = test: Inhibition of RACK1-FAK protein-protein interaction in human A-375 cells measured after 24 hrs by co-immunoprecipitation assay; format: cell-based; settings: dose 2-4 µM
# Sequence of Focal adhesion kinase 1 (Homo sapiens) (Q05397 2-1052 limits assumed): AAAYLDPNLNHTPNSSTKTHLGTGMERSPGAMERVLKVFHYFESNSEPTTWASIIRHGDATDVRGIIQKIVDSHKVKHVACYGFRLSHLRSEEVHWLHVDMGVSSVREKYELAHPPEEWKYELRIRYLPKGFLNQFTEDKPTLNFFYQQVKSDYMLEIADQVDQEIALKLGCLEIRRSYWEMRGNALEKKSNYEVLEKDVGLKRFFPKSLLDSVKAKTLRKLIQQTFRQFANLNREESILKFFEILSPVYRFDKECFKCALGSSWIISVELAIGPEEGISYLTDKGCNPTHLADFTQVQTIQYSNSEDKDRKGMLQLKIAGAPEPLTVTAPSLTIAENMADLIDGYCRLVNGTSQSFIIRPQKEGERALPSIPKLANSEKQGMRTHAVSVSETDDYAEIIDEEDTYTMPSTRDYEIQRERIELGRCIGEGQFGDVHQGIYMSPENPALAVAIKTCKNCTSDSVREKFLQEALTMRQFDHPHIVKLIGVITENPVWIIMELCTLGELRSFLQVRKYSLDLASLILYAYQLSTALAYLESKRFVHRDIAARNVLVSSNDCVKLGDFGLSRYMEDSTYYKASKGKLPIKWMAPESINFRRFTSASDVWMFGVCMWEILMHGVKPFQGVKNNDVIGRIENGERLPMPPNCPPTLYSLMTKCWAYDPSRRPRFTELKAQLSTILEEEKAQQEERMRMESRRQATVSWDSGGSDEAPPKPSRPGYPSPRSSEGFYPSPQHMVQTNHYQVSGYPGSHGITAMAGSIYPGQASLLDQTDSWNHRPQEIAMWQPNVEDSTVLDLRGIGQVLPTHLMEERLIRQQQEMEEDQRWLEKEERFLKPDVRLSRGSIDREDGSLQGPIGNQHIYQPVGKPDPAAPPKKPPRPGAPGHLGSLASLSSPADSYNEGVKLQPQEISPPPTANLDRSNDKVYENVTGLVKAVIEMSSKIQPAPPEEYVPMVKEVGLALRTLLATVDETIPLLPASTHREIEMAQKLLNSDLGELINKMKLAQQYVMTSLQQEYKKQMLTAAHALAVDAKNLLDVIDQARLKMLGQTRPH
# Sequence of Signal transducer and activator of transcription 3 (Homo sapiens) (P40763 whole entry): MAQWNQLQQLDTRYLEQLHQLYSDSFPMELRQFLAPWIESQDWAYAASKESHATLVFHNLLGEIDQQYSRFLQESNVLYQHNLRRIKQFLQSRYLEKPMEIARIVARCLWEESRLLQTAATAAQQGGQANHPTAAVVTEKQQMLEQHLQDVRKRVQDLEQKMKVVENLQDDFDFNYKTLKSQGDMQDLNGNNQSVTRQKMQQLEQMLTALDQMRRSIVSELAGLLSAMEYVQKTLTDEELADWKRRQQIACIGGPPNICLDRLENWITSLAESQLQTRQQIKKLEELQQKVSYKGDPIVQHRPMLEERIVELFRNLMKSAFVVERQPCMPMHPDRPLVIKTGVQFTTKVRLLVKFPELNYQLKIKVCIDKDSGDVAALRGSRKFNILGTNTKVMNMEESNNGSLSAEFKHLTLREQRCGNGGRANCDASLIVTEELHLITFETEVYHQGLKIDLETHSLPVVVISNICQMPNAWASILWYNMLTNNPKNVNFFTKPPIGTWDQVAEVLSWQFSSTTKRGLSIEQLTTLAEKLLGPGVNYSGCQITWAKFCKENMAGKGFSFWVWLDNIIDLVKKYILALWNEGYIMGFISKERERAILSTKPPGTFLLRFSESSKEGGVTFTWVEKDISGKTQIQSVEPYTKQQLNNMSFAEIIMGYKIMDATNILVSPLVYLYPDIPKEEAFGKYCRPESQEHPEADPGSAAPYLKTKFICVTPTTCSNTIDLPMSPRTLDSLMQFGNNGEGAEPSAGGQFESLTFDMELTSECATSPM
structure (smiles),measurement,setting,value
C#CCCC1(CCC(=O)O[C@H]2C[C@]34C(=O)O[C@H]5[C@H](O[C@H]6c7c(C)cc(=O)cc2c7[C@@H]3[C@@H]56)[C@H]4C)N=N1,Activity,A-375 [1],Active
same,inhibition,A-375 [2],Dose-Dependent Effect
same,inhibition,A-375 [3],Dose-Dependent Effect
same,Activity,A-375 [4],Active
same,"degraded at 24 h, 200 µM",[5],13.6%
same,Activity,A-375 [6],inactive
Cc1cc(=O)cc2c3c1[C@@H]1O[C@H]4[C@@H]5OC(=O)[C@](C[C@@H]2OC(=O)COCCOCCOCCOCCNC(=O)CCCC[C@@H]2SC[C@@H]6NC(=O)N[C@@H]62)([C@@H]4C)[C@H]3[C@@H]51,Activity,A-375 [7],inactive
Cc1cc(=O)cc2c3c1[C@@H]1O[C@H]4[C@@H]5OC(=O)[C@](C[C@@H]2OC(=O)COCCOCCNC(=O)CCCC[C@@H]2SC[C@@H]6NC(=O)N[C@@H]62)([C@@H]4C)[C@H]3[C@@H]51,"remaining at 24 h, 200 µM",[8],59.2%
same,Activity,A-375 [4],Active
Cc1cc(=O)cc2c3c1[C@@H]1O[C@H]4[C@@H]5OC(=O)[C@](CC2)([C@@H]4C)[C@H]3[C@@H]51 [HAINANOLIDE],Activity,A-375 [9],Active
same,pIC50,A-375 [10],4.40
same,Activity,A-375 [11],Active
same,inhibition,A-375 [2],Dose-Dependent Effect
same,inhibition,A-375 [3],Dose-Dependent Effect
same,inhibition,A-375 [12],Active
same,inhibition,A-375 [13],Active
same,inhibition,A-375 [14],Active
same,inhibition,[15],Dose-Dependent Effect
same,inhibition,[16],Active
same,inhibition,[17],Active
same,inhibition,[18],Active
same,inhibition,[19],Active
same,inhibition,A-375 [20],Dose-Dependent Effect
